Assay results as given in patent publication US20140200215A1, “LYSOPHOSPHATIDIC ACID RECEPTOR ANTAGONISTS” (INTERMUNE, INC., priority 2013, published 2014).

Assays:
[1] = tested on: primary fibroblasts (including lung, dermal), HFL-1, 3T3 and CHO cells expressing LPA1R; assay: LPA1 migration assay (Oris cell migration); type: cell-based; details: inhibition of cell migration in response to chemoattractant (LPA, serum)
From the text: Migration of primary fibroblasts (including lung, dermal), HFL-1, 3T3 and CHO cells expressing LPA1R were monitored using the Oris™ assay (Platypus Technologies, Madison, Wis.). These cells were dye (Cell Tracker Green™) loaded and serum starved for 12-24 hrs. In response to chemoattractants such as LPA and serum, the cells migrated inward in to the exclusion (detection) zone. After fixing, fluorescent cells in the detection zone were counted using a high content reader. The ability of LPA1 antagonists to inhibit cell migration is quantified by plotting cell number vs. compound concentration and curve fitting the resulting dose-response curve to a 4 parameter logistic function.

Human LPA1 = Human LPA1 (Homo sapiens, UniProt Q92633); assay: Beta-Arrestin based assay for human LPA1R antagonists (PathHunter); type: cell-based; details: CHO cells expressing ProLink tagged human LPA1R; antagonist mode, 0.5 micromolar LPA
Human LPA1, sequence (Q92633 whole entry): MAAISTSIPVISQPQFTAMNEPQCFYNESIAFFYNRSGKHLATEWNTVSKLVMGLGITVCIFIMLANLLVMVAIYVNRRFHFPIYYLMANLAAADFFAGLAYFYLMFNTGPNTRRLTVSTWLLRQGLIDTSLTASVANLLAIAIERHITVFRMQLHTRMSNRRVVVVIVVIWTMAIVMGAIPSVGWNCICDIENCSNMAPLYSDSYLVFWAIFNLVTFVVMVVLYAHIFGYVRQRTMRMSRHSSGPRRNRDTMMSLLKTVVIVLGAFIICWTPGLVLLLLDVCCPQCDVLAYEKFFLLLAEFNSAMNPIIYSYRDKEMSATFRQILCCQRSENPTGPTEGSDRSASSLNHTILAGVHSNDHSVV
Method: Beta-Arrestin Based Assays for Human LPA1R Antagonists and Agonists
A CHO cell line stably expressing the ProLink™ tagged human LPA1R was obtained from DiscoverX Inc, Fremont, Calif. In this system, β-Arrestin was fused to an N-terminal deletion mutant of β-galactosidase (termed the enzyme acceptor or EA), the human LPA1R was fused to a smaller (42 amino acids) weakly complementing fragment termed ProLink™. […] Cell handling and assays were performed according to protocols specified in the PathHunter® assays kits (DiscoverX, Fremont, Calif.). Assays were performed in quadruplicate in white 384 well plates. End point luminescence data were plotted and fit to a 4 parameter logistic function to obtain IC50 values. For antagonist assays, an […] concentration of agonist (LPA) equal to 0.5 micromolar was used.

SMILES	EC50 [1] [nM]	EC50 (Human LPA1) [nM]
Cc1noc(-c2ccc(-c3ccc4c(c3)CCCC4C(=O)O)cc2)c1NC(=O)O[C@H](C)c1ccccc1 (single isomer, unassigned) [IT038]	> 500	–
Cc1noc(-c2ccc(-c3ccc4c(c3)CCCC4C(=O)O)cc2)c1NC(=O)O[C@H](C)c1ccccc1 (single isomer, unassigned) [IT039]	> 500	–
Cc1noc(-c2ccc(-c3ccc(C4(C(=O)O)CC4)cc3)cc2)c1NC(=O)O[C@@H]1CCCc2ccccc21 (single isomer, unassigned) [IT057]	> 500	> 500
Cc1noc(-c2ccc(-c3ccc(C4(C(=O)O)CC4)cc3)cc2)c1NC(=O)O[C@H]1CCCc2ccccc21 (single isomer, unassigned) [IT058]	> 500	> 500
Cc1nsc(C2CCC(c3ccc(C4(C(=O)O)CC4)cc3)CC2)c1NC(=O)O[C@H](C)c1ccccc1 (single isomer, unassigned) [IT059]	> 500	50 to 500
Cc1nsc(C2CCC(c3ccc(C4(C(=O)O)CC4)cc3)CC2)c1NC(=O)O[C@H](C)c1ccccc1 (single isomer, unassigned) [IT060]	> 500	> 500
Cc1nsc(C#Cc2ccc3c(c2)CCC(C(=O)O)C3)c1NC(=O)O[C@H](C)c1ccccc1 (single isomer, unassigned) [IT062]	> 500	> 500
Cc1nsc(C#Cc2ccc3c(c2)CCC(C(=O)O)C3)c1NC(=O)O[C@H](C)c1ccccc1 (single isomer, unassigned) [IT063]	> 500	> 500
Cc1noc(-c2ccc(-c3ccc(C4(C(=O)O)CC4)cc3)cc2)c1NC(=O)OC(C)c1cccc2ocnc12 (single isomer, unassigned) [IT076]	–	> 500
Cc1noc(-c2ccc(-c3ccc(C4(C(=O)O)CC4)cc3)cc2)c1NC(=O)OC(C)c1cccc2ocnc12 (single isomer, unassigned) [IT077]	–	50 to 500
Cc1nsc(-c2ccc(-c3ccc(C4(C(=O)O)CC4)cc3)cc2)c1NC(=O)OC(c1ccccc1)C(F)(F)F (single isomer, unassigned) [IT078]	50 to 500	< 50
Cc1nsc(-c2ccc(-c3ccc(C4(C(=O)O)CC4)cc3)cc2)c1NC(=O)OC(c1ccccc1)C(F)(F)F (single isomer, unassigned) [IT079]	> 500	> 500
Cc1noc(C#Cc2ccc(CC3(C(=O)O)CC3)cc2)c1NC(=O)O[C@H](C)c1ccccc1 [IT001]	50 to 500	50 to 500
Cc1noc(C#Cc2ccc(C3(CC(=O)O)CC3)cc2)c1NC(=O)O[C@H](C)c1ccccc1 [IT002]	50 to 500	50 to 500
Cc1noc(C#Cc2ccc(NC(=O)C3(C(=O)O)CC3)cc2)c1NC(=O)O[C@H](C)c1ccccc1 [IT005]	> 500	> 500
Cc1noc(C#Cc2ccc(CC3(C(=O)O)CC3)cc2)c1NC(=O)O[C@H](C)c1ccccc1 [IT006]	–	50 to 500
Cc1nsc(-c2ccc([C@H]3CC[C@@H](C(=O)O)CC3)cc2)c1NC(=O)O[C@H](C)c1ccccc1 [IT007]	> 500	> 500
Cc1nsc(-c2ccc([C@H]3CC[C@H](C(=O)O)CC3)cc2)c1NC(=O)O[C@H](C)c1ccccc1 [IT008]	> 500	> 500
Cc1noc(-c2ccc(-c3ccc4c(c3)NC(=O)CC4C(=O)O)cc2)c1NC(=O)O[C@H](C)c1ccccc1 (stereo partly drawn) [IT011]	> 500	50 to 500
Cc1noc(-c2ccc(-c3ccc4c(c3)CCOC4C(=O)O)cc2)c1NC(=O)O[C@H](C)c1ccccc1 (stereo partly drawn) [IT012]	> 500	> 500
Cc1noc(C#Cc2ccc(/C=C/C(=O)O)cc2)c1NC(=O)O[C@H](C)c1ccccc1 [IT013]	> 500	> 500
C[C@@H](OC(=O)Nc1c(-c2ccc(-c3ccc(C4(C(=O)O)CC4)cc3)cc2)nc2n1CCNC2)c1ccccc1 [IT019]	> 500	> 500
CCN1CCn2c(nc(-c3ccc(-c4ccc(C5(C(=O)O)CC5)cc4)cc3)c2NC(=O)O[C@H](C)c2ccccc2)C1 [IT024]	> 500	> 500
Cc1nsc(-c2ccc(-c3cc4sc(C(=O)O)cc4s3)cc2)c1NC(=O)O[C@H](C)c1ccccc1 [IT025]	> 500	> 500
C[C@@H](OC(=O)Nc1c(-c2ccc(C#CC3(C(=O)O)CC3)cc2)nnn1C)c1ccccc1 [IT036]	> 500	> 500
Cc1noc(-c2ccc(-c3ccc4c(c3)OCCC4C(=O)O)cc2)c1NC(=O)O[C@H](C)c1ccccc1 (stereo partly drawn) [IT037]	–	50 to 500
Cc1nsc(-c2cc(F)c(-c3ccc(C4(C(=O)O)CCOCC4)cc3)cc2F)c1NC(=O)O[C@H](C)c1ccccc1 [IT042]	50 to 500	< 50

SMILES	EC50 [1] [nM]	EC50 (Human LPA1) [nM]
C[C@@H](OC(=O)Nc1c(-c2cc(F)c(-c3ccc(C4(C(=O)O)CCOCC4)cc3)cc2F)cnn1C)c1ccccc1 [IT044]	50 to 500	< 50
Cc1nsc(-c2cc(F)c(-c3ccc(C4(C(=O)O)CCOCC4)cc3)cc2F)c1NC(=O)OCc1ccccc1 [IT045]	> 500	> 500
C[C@@H](OC(=O)Nc1c(-c2cc(F)c(-c3ccc(C4(C(=O)O)CC4)cc3)cc2F)nn2ccccc12)c1ccccc1 [IT049]	50 to 500	< 50
C[C@@H](OC(=O)Nc1c(-c2ccc(-c3ccc(C4(C(=O)O)CC4)cc3)cc2)nn2ccccc12)c1ccccc1 [IT052]	> 500	–
Cc1nsc(-c2ccc3cc(C4CCC(C(=O)O)CC4)ccc3c2)c1NC(=O)O[C@H](C)c1ccccc1 (stereo partly drawn) [IT053]	> 500	> 500
Cc1nsc(-c2ccc3cc(C4CCC(C(=O)O)CC4)ccc3c2)c1NC(=O)O[C@H](C)c1ccccc1 (stereo partly drawn) [IT054]	> 500	> 500
C[C@@H](OC(=O)Nc1c(-c2cc(F)c(-c3ccc(C4(C(=O)O)CCOCC4)cc3)cc2F)nnn1C)c1ccccc1 [IT055]	50 to 500	50 to 500
Cc1noc(C#Cc2ccc3cc(CC4(C(=O)O)CC4)ccc3c2)c1NC(=O)O[C@H](C)c1ccccc1 [IT065]	> 500	50 to 500
Cc1nsc(-c2ccc(N3CCC(CC(=O)O)CC3)cc2)c1NC(=O)O[C@H](C)c1ccccc1 [IT068]	> 500	> 500
C[C@@H](OC(=O)Nc1c(C(F)(F)F)nnn1-c1ccc(-c2ccc(C3(C(=O)O)CC3)cc2)cc1)c1ccccc1 [IT072]	> 500	< 50
C[C@@H](OC(=O)Nc1c(C#Cc2cc3sc(C4(C(=O)O)CC4)cc3s2)oc2ccccc12)c1ccccc1 [IT074]	> 500	50 to 500
C[C@@H](OC(=O)Nc1c(-c2cc(F)c(-c3ccc(C4(C(=O)O)CC4)cc3)cc2F)oc2ccccc12)c1ccccc1 [IT075]	50 to 500	< 50
Cc1nsc(-c2cc3cc4sc(C(=O)O)cc4cc3s2)c1NC(=O)O[C@H](C)c1ccccc1 [IT080]	–	> 500
Cc1noc(C#Cc2ccc(-c3ccc(C(=O)O)cc3)cc2)c1NC(=O)O[C@H](C)c1ccccc1 [IT081]	> 500	> 500
C[C@@H](OC(=O)Nc1c(C#Cc2cc3sc(C4(C(=O)OCCN5CCOCC5)CC4)cc3s2)cnn1C)c1ccccc1 [IT082]	50 to 500	50 to 500
C[C@@H](OC(=O)Nc1c(C#Cc2cc3sc(C4(CO)CC4)cc3s2)cnn1C)c1ccccc1 [IT083]	> 500	> 500
COCCOC(=O)C1(c2cc3sc(C#Cc4cnn(C)c4NC(=O)O[C@H](C)c4ccccc4)cc3s2)CC1 [IT084]	50 to 500	< 50
CCOC(=O)C1(c2cc3sc(C#Cc4cnn(C)c4NC(=O)O[C@H](C)c4ccccc4)cc3s2)CC1 [IT085]	> 500	< 50
CC(C)OC(=O)C1(c2cc3sc(C#Cc4cnn(C)c4NC(=O)O[C@H](C)c4ccccc4)cc3s2)CC1 [IT086]	> 500	50 to 500
C[C@@H](OC(=O)Nc1c(C#Cc2cc3sc(C4(C(=O)OCOC(=O)C(C)(C)C)CC4)cc3s2)cnn1C)c1ccccc1 [IT087]	< 50	< 50
COc1ccccc1OC(=O)C1(c2cc3sc(C#Cc4cnn(C)c4NC(=O)O[C@H](C)c4ccccc4)cc3s2)CC1 [IT088]	50 to 500	< 50
C[C@@H](OC(=O)Nc1c(C#Cc2cc3sc(C4(NS(C)(=O)=O)CC4)cc3s2)cnn1C)c1ccccc1 [IT089]	> 500	> 500
C[C@@H](OC(=O)Nc1c(C#Cc2cc3sc(C4(C(=O)OCC(=O)N(C)C)CC4)cc3s2)cnn1C)c1ccccc1 [IT090]	50 to 500	< 50
C[C@@H](OC(=O)Nc1ncsc1C#Cc1cc2sc(C3(C(=O)O)CC3)cc2s1)c1ccccc1 [IT101]	–	> 500
COCC(COC(=O)C1(c2cc3sc(C#Cc4cnn(C)c4NC(=O)O[C@H](C)c4ccccc4)cc3s2)CC1)OC (stereo partly drawn) [IT 100]	–	< 50
Cc1noc(C#Cc2nc3sc(C4(C(=O)O)CC4)cc3s2)c1NC(=O)O[C@H](C)c1ccccc1 [IT 102]	–	< 50
C[C@@H](OC(=O)Nc1c(C#Cc2sc3cc(C4(C(=O)O)CC4)sc3c2C(F)(F)F)cnn1C)c1ccccc1 [IT 103]	–	< 50
